In PMC8151276, “An Integrated Approach toward NanoBRET Tracers for Analysis of GPCR Ligand Engagement” (Molecules, 2021):

Target: T1, DRD3 (Homo sapiens, UniProt P35462)
T1 construct: purchased Promega (in-house HiBiT-GPCR construct library, NanoBRET)
Assay: NanoBRET screen HiBiT-DRD3 in HEK293
Format: binding
Experimental: Each tracer candidate was screened across the entire library of HiBiT-GPCR constructs using NanoBRET as the detection modality. As depicted in Figure 4A, the specificity of interactions was evaluated through decrease in BRET due to competitive displacement of a bound tracer by excess parental compound. Each tracer was analyzed for binding to each HiBiT-GPCR fusion in the absence and in the presence of competing parental compound. Briefly, HEK293 cells were transfected with HiBiT-GPCR constructs diluted into promoterless DNA to reduce expression and maximize translocation to the cell surface. Each tracer candidate was then screened at concentrations of 1 μM and 0.1 μM across cells expressing these fusions. Cells were treated for 1.5 h with tracer either alone or in the presence of 20 μM competing parental compound (i.e., control). BRET was measured upon addition of purified LgBiT and subsequent complementation with HiBiT genetically fused to a GPCR. The specificity of interactions was assessed through a decrease in BRET signal due to competitive displacement of the bound tracer. To further gauge the robustness of these interactions, the fold response over the control (i.e., BRETtracer/BRETcontrol) was calculated. We chose a 1.5-fold response, which translates to ≥7-fold signal over noise as the minimal threshold required to score an interaction as positive.
HiBiT-GPCR DNA constructs were diluted in 10 mM Tris pH 8 to a final concentration of 0.01 μg/μL, arrayed in 96-well plates and stored at −20 °C. For transfection, HEK293 cells were suspended in Opti-MEM (without phenol red) supplemented with 2% fetal bovine serum (Seradigm) and 100 units/mL penicillin–streptomycin (Gibco) at a final concentration of 220,000 cells/mL and dispensed into white 96-well plates at 90 μL/well. Subsequent transfections and screens were carried using an Agilent Bravo Automated Liquid Handling Platform. First, the 96-well HiBiT DNA arrays were diluted 25-fold in Opti-MEM (without serum or phenol red) to a final concentration of 0.0004 μg/μL and 20 μL of the diluted DNAs were transferred into new 96-well plates. Next, promoterless carrier DNA (1 μg/μL) was diluted 25-fold (0.04 μg/μL) and then dispensed into the diluted arrays at 20 μL/well. Following brief mixing, Viafect transfection reagent (Promega) diluted 16-fold into Opti-MEM was dispensed into the plates at 40 μL/well. After mixing by pipetting, plates were incubated for 10 min on the pipetting station deck. The DNA-transfection reagent complexes were then added to plates containing cells. To facilitate the screen, 10 μL of DNA-transfection reagent complexes were added in duplicates to the top 4 and bottom 4 rows, resulting in two identical 48-well arrays per plate. Plates with transfected cells were incubated for 18–20 h at 37 °C/5% CO2. A screen of each tracer across the entire library using two different concentrations requires duplicate plates of transfected cells. Depending on the number of tracers being screened, transfections can be scaled up using the same ratios. The next day, for each tracer, four 20× screening solutions in tracer dilution buffer (Promega) were prepared: two duplicates at final concentration of 20 μM and two duplicates at a final concentration of 2 μM. […] The four resulting solutions were diluted 4-fold in Opti-MEM without serum or phenol red to generate 5× solutions (5 µM and 0.5 µM tracer +/− 100 μM competing compound). To screen the library, a BioTek MultiFlo FX liquid dispenser was used to dispense 22.5 µL of tracer solution to the top 4 rows and 22.5 µL tracer + competing compound solution to the 4 bottom rows. Plates were briefly mixed on an orbital shaker and incubated for 1.5 h at room temperature. […] Plates were briefly mixed on an orbital shaker and incubated for 15 min to allow complementation.

T1 sequence (P35462 whole entry): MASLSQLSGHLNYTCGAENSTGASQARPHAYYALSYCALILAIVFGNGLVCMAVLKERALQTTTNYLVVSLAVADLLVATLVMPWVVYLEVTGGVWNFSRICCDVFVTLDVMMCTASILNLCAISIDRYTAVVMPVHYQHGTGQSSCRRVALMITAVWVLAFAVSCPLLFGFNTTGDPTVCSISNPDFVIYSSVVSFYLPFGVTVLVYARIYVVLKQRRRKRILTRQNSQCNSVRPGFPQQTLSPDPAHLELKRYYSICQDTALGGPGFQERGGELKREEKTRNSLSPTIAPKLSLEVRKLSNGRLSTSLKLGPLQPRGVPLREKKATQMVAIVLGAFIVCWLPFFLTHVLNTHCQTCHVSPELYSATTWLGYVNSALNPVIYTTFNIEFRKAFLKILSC

Structure (SMILES): COc1ccc2c(n1)c(CCNC(C)=O)cn2CCNC(=O)CCc1ccc2n1[B-](F)(F)[N+]1=C(c3ccc[nH]3)C=CC1=C2 [Azamelatonin-1-NB590]
- NanoBRET Fold Response (0.1μM tracer): 1.14
- NanoBRET Fold Response (1μM tracer): 1.27

Structure (SMILES): CC(C)N(CC[C@H](c1ccccc1)c1cc(CCNC(=O)c2ccc(CNC(=O)CCc3ccc4n3[B-](F)(F)[N+]3=C(c5ccc[nH]5)C=CC3=C4)cc2)ccc1O)C(C)C [Tolterodine-BZ-NB590]
- NanoBRET Fold Response (DRD3, tracer 0.1μM): 0.91
- NanoBRET Fold Response (DRD3, tracer 1μM): 1.25

Structure (SMILES): O=C(CCc1ccc2n1[B-](F)(F)[N+]1=C(c3ccc[nH]3)C=CC1=C2)NCCOCCOCCNC(=O)OCCOCCN1CCN(C2=Nc3ccccc3Sc3ccccc32)CC1 [Quetiapine-a-2-NB590]
- NanoBRET Fold Response (DRD3, tracer 0.1μM): 1.56
- NanoBRET Fold Response (DRD3, tracer 1μM): 1.98

Structure (SMILES): Cc1cc2c(s1)Nc1ccccc1N=C2N1CCN(CCCNC(=O)CCOCCOCCOCCOCCNC(=O)CCc2ccc3n2[B-](F)(F)[N+]2=C(c4ccc[nH]4)C=CC2=C3)CC1 [Olanzapine-a-2-NB590]
- NanoBRET Fold Response (DRD3, tracer 0.1μM): 1.74
- NanoBRET Fold Response (DRD3, tracer 1μM): 2.07

Structure (SMILES): O=C(CCc1ccc2n1[B-](F)(F)[N+]1=C(c3ccc[nH]3)C=CC1=C2)NCc1ccc(C(=O)NCCOCCOCCNCC(O)COc2cccc3ccccc23)cc1 (stereo not drawn) [Propranolol-3-NB590]
- NanoBRET Fold Response (DRD3, 0.1μM): 1.05
- NanoBRET Fold Response (DRD3, 1μM): 1.30

Structure (SMILES): N#CN/C(=N\CCNC(=O)c1ccc(N)cc1)NCCCOc1cccc(CN2CCCCC2)c1 [Aminopotentidine (unmodified)]
- NanoBRET Fold Response (DRD3, other tracers/Aminopotentidine (unmodified), 0.1μM): 1.16
- NanoBRET Fold Response (DRD3, other tracers/Aminopotentidine (unmodified), 1μM): 1.64

Structure (SMILES): CN1CCN(C2=Nc3cc(Cl)ccc3N(CC(=O)NCCOCCOCCOCCOCCNC(=O)CCc3ccc4n3[B-](F)(F)[N+]3=C(c5ccc[nH]5)C=CC3=C4)c3ccccc32)CC1 [Clozapine-c-2-NB590]
- NanoBRET Fold Response (DRD3, 0.1μM tracer): 0.96
- NanoBRET Fold Response (DRD3, 1μM tracer): 0.76

Structure (SMILES): O=C(CCc1ccc2n1[B-](F)(F)[N+]1=C(c3ccc[nH]3)C=CC1=C2)NCc1ccc(C(=O)NCCOCCC(=O)N[C@@H]2CC[C@@]3(O)[C@H]4Cc5ccc(O)c6c5[C@@]3(CCN4CC3CC3)[C@H]2O6)cc1 [Naltrexone-3-NB590]
- NanoBRET Fold Response (DRD3, tracer 0.1μM): 0.79
- NanoBRET Fold Response (DRD3, tracer 1μM): 1.37

Structure (SMILES): CC(C)N(CC[C@H](c1ccccc1)c1cc(CCNC(=O)CCOCCOCCOCCOCCNC(=O)CCc2ccc3n2[B-](F)(F)[N+]2=C(c4ccc[nH]4)C=CC2=C3)ccc1O)C(C)C [Tolterodine-2-NB590]
- NanoBRET Fold Response (DRD3, tracer 0.1μM): 0.97
- NanoBRET Fold Response (DRD3, tracer 1μM): 0.98

Structure (SMILES): O=C(CCOCCOCCOCCOCCNC(=O)CCc1ccc2n1[B-](F)(F)[N+]1=C(c3ccc[nH]3)C=CC1=C2)NCCCN1CCN(C2=Nc3cc(Cl)ccc3Nc3ccccc32)CC1 [Clozapine-a-2-NB590]
- NanoBRET Fold Response (DRD3, 0.1μM tracer): 2.22
- NanoBRET Fold Response (DRD3, 1μM tracer): 2.49

Structure (SMILES): COc1ccc2[nH]c(-c3ccc(CNC(=O)CCOCCOCCOCCOCCNC(=O)CCc4ccc5n4[B-](F)(F)[N+]4=C(c6ccc[nH]6)C=CC4=C5)cc3)c(CCNC(C)=O)c2n1 [AzomelatoninICO9-2-NB590]
- NanoBRET Fold Response (0.1μM tracer): 0.93
- NanoBRET Fold Response (1μM tracer): 1.05

Structure (SMILES): CN1CCN(C2=Nc3cc(Cl)ccc3Nc3ccc(CNC(=O)CCOCCOCCOCCOCCNC(=O)CCc4ccc5n4[B-](F)(F)[N+]4=C(c6ccc[nH]6)C=CC4=C5)cc32)CC1 [Clozapine-b-2-NB590]
- NanoBRET Fold Response (DRD3, 0.1μM tracer): 1.54
- NanoBRET Fold Response (DRD3, 1μM tracer): 2.63

Structure (SMILES): COc1ccccc1N1CCN(CCCCN2C(=O)c3ccc(CNC(=O)CCOCCNC(=O)c4ccc(CNC(=O)CCc5ccc6n5[B-](F)(F)[N+]5=C(c7ccc[nH]7)C=CC5=C6)cc4)cc3C2=O)CC1 [NAN-190-3-NB590]
- NanoBRET Fold Response (DRD3, tracer 0.1μM): 2.25
- NanoBRET Fold Response (DRD3, tracer 1μM): 1.52

Structure (SMILES): N#CN=C(NCCCOc1cccc(CN2CCCCC2)c1)NCCNC(=O)CCOCCOCCOCCOCCNC(=O)CCc1ccc2n1[B-](F)(F)[N+]1=C(c3ccc[nH]3)C=CC1=C2 [Aminopotentidine-2-NB590]
- NanoBRET Fold Response (DRD3, tracer 0.1μM): 1.25
- NanoBRET Fold Response (DRD3, tracer 1μM): 1.17

Structure (SMILES): CN(C)CCC=C1c2ccccc2CCc2ccc(C(=O)NCCNC(=O)CCOCCOCCOCCOCCNC(=O)CCc3ccc4n3[B-](F)(F)[N+]3=C(c5ccc[nH]5)C=CC3=C4)cc21 [Amitriptyline-b-2-NB590]
- NanoBRET Fold Response (tracer at 0.1μM, listed as amitriptyline-b-2-NB590): 1.68
- NanoBRET Fold Response (tracer at 1μM, listed as amitriptyline-b-2-NB590): 1.25

Structure (SMILES): COc1ccccc1N1CCN(CCCCN2C(=O)c3ccc(CNC(=O)CCOCCOCCOCCOCCNC(=O)CCc4ccc5n4[B-](F)(F)[N+]4=C(c6ccc[nH]6)C=CC4=C5)cc3C2=O)CC1 [NAN-190-2-NB590]
- NanoBRET Fold Response (DRD3, tracer 0.1μM): 2.36
- NanoBRET Fold Response (DRD3, tracer 1μM): 1.69

Structure (SMILES): CN(CCC=C1c2ccccc2CCc2ccccc21)C(=O)CCOCCOCCOCCOCCNC(=O)CCc1ccc2n1[B-](F)(F)[N+]1=C(c3ccc[nH]3)C=CC1=C2 [Amitriptyline-e-2-NB590]
- NanoBRET Fold Response (tracer at 1μM): 1.24

Structure (SMILES): CCCn1c(=O)c2[nH]c(-c3ccc(OCC(=O)NCCNC(=O)CCOCCNC(=O)c4ccc(CNC(=O)CCc5ccc6n5[B-](F)(F)[N+]5=C(c7ccc[nH]7)C=CC5=C6)cc4)cc3)nc2n(CCC)c1=O [XAC-3-NB590]
- NanoBRET Fold Response (DRD3, tracer 0.1μM): 1.23
- NanoBRET Fold Response (DRD3, tracer 1μM): 0.81

Structure (SMILES): CN(C)CCC=C1c2ccccc2CCc2ccc(C(=O)NCCNC(=O)CCOCCOCCOCCOCCNC(=O)CCc3ccc4n3[B-](F)(F)[N+]3=C(c5ccc[nH]5)C=CC3=C4)cc21 [Amitriptyline-a-2-NB590]
- NanoBRET Fold Response (tracer at 0.1μM): 1.13
- NanoBRET Fold Response (tracer at 1μM): 1.37

Structure (SMILES): CCOC(=O)c1cc(C#N)c(N2CCC(C(=O)NS(=O)(=O)Cc3ccccc3/C=C/C(=O)NCCNC(=O)CCc3ccc4n3[B-](F)(F)[N+]3=C(c5ccc[nH]5)C=CC3=C4)CC2)nc1C [AZD1283-1-NB590]
- NanoBRET Fold Response (DRD3, 0.1μM): 0.99
- NanoBRET Fold Response (DRD3, 1μM): 1.01
